Source: patent publication US12018303B2, “Method for preparing amines from carbonyl compounds by transaminase reaction under salt precipitation” (ENZYMICALS AG, priority 2017, dated 2024)
Where two headings read alike, the source gives them in different places.

Key:
[1] = Stability of salt solutions observed in the screening; type: physicochemical; conditions: certain salt solutions; strong discoloration
From the text: The results of table 3 show clearly that certain acids allow significant differences in solubility between investigated salts. In this screening especially differences between product amines and the commonly used donor amines isopropylamine/alanine were targeted. Based on this consideration the following acids appear most applicable: 34CA, 34NA, 43CNA and 3DPPA. In addition, 2DPPA was identified as suitable acid. Acids with less strong differences are PCPA, 24CNA, 25CNA, 35DNOT, 3NA and 435CNBA, which might be useful for other product amines.

[2] = tested on: amine transaminases AfATA, GzATA, NfATA, AoATA, AtATA, MvATA, SpATA; type: biochemical
[3] = donor amine salt

O=C(O)C1(c2ccccc2)CCCC1 [PCPA, 1-Phenylcyclo-pentane-carboxylic acid]
stability of salt solutions [1]: unknown decomposition reaction

O=C(O)c1ccc(Cl)c([N+](=O)[O-])c1 [Compound 43CNA, 4-chloro-3-nitro-benzoic acid]
inhibition of amine transaminases ([2]; pH 7.5): strongly inhibited

CC(C)N.O=C(O)c1ccc(Cl)c([N+](=O)[O-])c1 [Compound 5, isopropylamine salt of 4-chloro-3-nitrobenzoic acid (43CNA)]
solubility [3]: 993

O=C(O)CC(c1ccccc1)c1ccccc1 [Compound 3DPPA, 3,3-diphenylpropionic acid]
inhibition of amine transaminases [2]: does not significantly inhibit

O=C(O)C(c1ccccc1)c1ccccc1 [DPAA, diphenylacetic acid]
inhibition of amine transaminases ([2]; pH 7.5): strongly inhibited
